Reference: patent US10451536B2, “Method and apparatus for multi-parameter data analysis” (GE HEALTHCARE UK LIMITED, priority 2009, dated 2019)

Tested on: CHO-K1 cells
Assay: High-content screening of nuclear morphology in CHO-K1 cells treated with Mitomycin C, with KS distance analysis
Assay type: cell-based
Procedure: CHO-K1 cells were seeded into a GE Healthcare 96 well MatriPlate at 6000 cells/well in Ham's F12 media supplemented with 5% EBS and incubated under standard tissue culture conditions for 24 hours. Mitomycin C (MMC) solutions were added in culture media to provide final concentrations in the assay of […] and cells incubated for a further 48 hours. Media was removed from wells and cells washed once with […] phosphate buffered saline (PBS), followed by fixation in ethanol for 30 minutes at room temperature. Nuclei were stained with […] HOECHST™ 33342 (Sigma) at room temperature for 15 minutes and cells washed with […] PBS.
Cells were imaged by a GE Healthcare INCELL ANALYZER 1000™ using v3.5 acquisition software (available from GE Healthcare) with a 20× objective. Images were acquired using on-line cell counting to acquire a minimum of 1000 cells/well. Images were analysed for nuclear area, length, perimeter and weighted moment of inertia (WMOI) using GE INCELL INVESTIGATOR™ software (available from GE Healthcare).
Four nuclear morphology parameters were abstracted from images using automated image analysis and data from replicate samples exposed to the same concentrations of MMC combined to yield population distribution histograms for each of the four parameters as shown in FIGS. 7 to 10. In each of FIGS. 7 to 10 the data in panel 1 is from control cells, and the data in panels 2-12 from MMC treated cells across the range of 0.01 μM-10 μM MMC.
KS distance analysis of the data using intra-sample measurements (i.e. calculation of the KS distance between cell data in the absence of MMC and cell data at a given concentration of MMC across the range 0.01 μM-10 μM) was performed and the resulting data shown in FIG. 11.
Inter-sample KS distances were calculated for all six possible parameter pairings (Area-Length; Area-WMOI; Length-WMOI; Area-Perimeter; Length-Perimeter; Perimeter-WMOI) by calculation of KS distance between data distributions for two parameters at the same MMC concentration. In order to perform KS distance measures on the different parameters of which had variant dimensions, parameter values were normalized (Pnorm) to a range from 0-1 using the function: […]

[1] = CHO-K1 cells, same MMC concentration, normalized parameters, FIG. 12

With CO[C@@]12[C@H](COC(N)=O)C3=C(C(=O)C(C)=C(N)C3=O)N1C[C@@H]1N[C@@H]12 [MMC, Mitomycin C] as the molecule, how does the “Nuclear size, shape and morphology in representative HCS images” value (CHO-K1 cells, 0, 0.16 and 2.5 μM MMC, 48 hours, HOECHST 33342 nuclear stain, FIG. 6) read?
Its value is “Changes in nuclear size, shape and morphology are clearly visible”.

What about the “Intra-sample KS distance relative to untreated cells (nuclear area, length, perimeter, WMOI)” value (CHO-K1 cells, 0.01 μM-10 μM MMC, FIG. 11) of the same molecule?
The value was “clear dose-dependent increase in KS distances for all four measured parameters”.

What about the “Micronuclei formation (higher magnification view)” value (CHO-K1 cells, 0.16 μM MMC, FIG. 6 image B inset) of the same molecule?
Its value is “nuclei with associated micronuclei arising from clastogenic DNA damage”.

And the “Inter-sample KS distance Area and perimeter (A-W)” value [1]?
The value was “low KS inter-sample distance at low and high MMC concentrations with an increase in KS distance at intermediate concentrations”.

What about the “Inter-sample KS distance Area-Length (A-L)” value [1] of the same molecule?
The value was “constant low KS distance across the entire MMC concentration range”.

And the “Inter-sample KS distance Length-WMOI (L-W)” value [1]?
Its value is “constant high KS distance over most of the MMC concentration range”.

And the “Inter-sample KS distance Perimeter-WMOI (P-W)” value [1]?
Its value is “decreases with MMC concentration”.
